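Step 1: Grow cells in 96-well plates. Step 2: Expose to compound for 48 hours at 5 concentrations. Step 3: Interpolate endpoints linearly; if unreached, use highest concentration. GI50: concentration for 50% inhibition of growth. Definition used: TGI = concentration required for complete inhibition of growth.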
Columns and labels:
Experiment in all cases: growth of human tumour cells (NCI), 48 h
HCC-2998 colon = system: HCC-2998 colon
MDA-MB-231 breast = system: MDA-MB-231 breast
DU-145 prostate = system: DU-145 prostate
HS 578T breast = system: HS 578T breast
HCT-116 colon = system: HCT-116 colon
T-47D breast = system: T-47D breast
SN12C renal = system: SN12C renal
NCI/ADR-RES ovarian = system: NCI/ADR-RES ovarian
SK-MEL-2 melanoma = system: SK-MEL-2 melanoma
KM12 colon = system: KM12 colon
HT29 colon = system: HT29 colon
NCI-H460 lung = system: NCI-H460 lung
TK-10 renal = system: TK-10 renal
BT-549 breast = system: BT-549 breast
U251 CNS = system: U251 CNS
OVCAR-3 ovarian = system: OVCAR-3 ovarian
EKVX NSCLC = system: EKVX NSCLC
HOP-92 NSCLC = system: HOP-92 NSCLC
OVCAR-4 ovarian = system: OVCAR-4 ovarian
PC-3 prostate = system: PC-3 prostate
A498 renal = system: A498 renal
SF-295 CNS = system: SF-295 CNS
HOP-62 NSCLC = system: HOP-62 NSCLC
OVCAR-5 ovarian = system: OVCAR-5 ovarian
K-562 leukemia = system: K-562 leukemia
SNB-75 CNS = system: SNB-75 CNS
UACC-257 melanoma = system: UACC-257 melanoma
NCI-H522 lung = system: NCI-H522 lung
SF-539 CNS = system: SF-539 CNS
RXF 393 renal = system: RXF 393 renal
M14 melanoma = system: M14 melanoma
SR leukemia = system: SR leukemia
SK-OV-3 ovarian = system: SK-OV-3 ovarian
SF-268 CNS = system: SF-268 CNS
MCF7 breast = system: MCF7 breast
SK-MEL-5 melanoma = system: SK-MEL-5 melanoma
SK-MEL-28 melanoma = system: SK-MEL-28 melanoma
786-0 renal = system: 786-0 renal
UACC-62 melanoma = system: UACC-62 melanoma
NCI-H23 lung = system: NCI-H23 lung
MDA-MB-435 = system: MDA-MB-435
OVCAR-8 ovarian = system: OVCAR-8 ovarian
A549 NSCLC = system: A549 NSCLC
HCT-15 colon = system: HCT-15 colon
RPMI-8226 leukemia = system: RPMI-8226 leukemia
NCI-H226 lung = system: NCI-H226 lung
MOLT-4 leukemia = system: MOLT-4 leukemia
LOX IMVI melanoma = system: LOX IMVI melanoma
SNB-19 CNS = system: SNB-19 CNS
HL-60(TB) leukemia = system: HL-60(TB) leukemia
SW-620 colon = system: SW-620 colon
COLO 205 colon = system: COLO 205 colon
CAKI-1 renal = system: CAKI-1 renal
UO-31 renal = system: UO-31 renal

## CNC1=C(C(=O)OC)SC(c2ccccc2)(c2ccccc2)SC1
HCC-2998 colon
  GI50: 13.1 µM
  TGI: > 100 µM
MDA-MB-231 breast
  GI50: 45.8 µM
  TGI: > 100 µM
DU-145 prostate
  GI50: 20.4 µM
  TGI: > 100 µM
HS 578T breast
  GI50: 28.1 µM
  TGI: > 100 µM
HCT-116 colon
  GI50: 9.22 µM
  TGI: > 100 µM
T-47D breast
  GI50: 34.6 µM
  TGI: > 100 µM
SN12C renal
  GI50: 24 µM
  TGI: > 100 µM
NCI/ADR-RES ovarian
  GI50: 12 µM
  TGI: 70.2 µM
SK-MEL-2 melanoma
  GI50: 7.06 µM
  TGI: 85.8 µM
KM12 colon
  GI50: 6.92 µM
  TGI: > 100 µM
HT29 colon
  GI50: 20.9 µM
  TGI: > 100 µM
NCI-H460 lung
  GI50: 16.9 µM
  TGI: > 100 µM
TK-10 renal
  GI50: 25.3 µM
  TGI: > 100 µM
BT-549 breast
  GI50: 29.5 µM
  TGI: > 100 µM
U251 CNS
  GI50: 34.8 µM
  TGI: > 100 µM
OVCAR-3 ovarian
  GI50: > 100 µM
  TGI: > 100 µM
EKVX NSCLC
  GI50: 36.1 µM
  TGI: > 100 µM
HOP-92 NSCLC
  GI50: 20.7 µM
  TGI: > 100 µM
OVCAR-4 ovarian
  GI50: 8.58 µM
  TGI: 82.6 µM
PC-3 prostate
  GI50: 15.3 µM
  TGI: > 100 µM
A498 renal
  GI50: 11.4 µM
  TGI: 85.3 µM
SF-295 CNS
  GI50: 6.06 µM
  TGI: 39.4 µM
HOP-62 NSCLC
  GI50: 39.4 µM
  TGI: > 100 µM
OVCAR-5 ovarian
  GI50: > 100 µM
  TGI: > 100 µM
K-562 leukemia
  GI50: 4.73 µM
  TGI: > 100 µM
SNB-75 CNS
  GI50: 26.1 µM
  TGI: > 100 µM
UACC-257 melanoma
  GI50: 9.2 µM
  TGI: > 100 µM
NCI-H522 lung
  GI50: 4.01 µM
  TGI: > 100 µM
SF-539 CNS
  GI50: 26.3 µM
  TGI: > 100 µM
RXF 393 renal
  GI50: 22 µM
  TGI: > 100 µM
M14 melanoma
  GI50: 7.12 µM
  TGI: 67.7 µM
SR leukemia
  GI50: 2.4 µM
  TGI: 7.93 µM
SK-OV-3 ovarian
  GI50: 71.1 µM
  TGI: > 100 µM
SF-268 CNS
  GI50: 18.9 µM
  TGI: > 100 µM
MCF7 breast
  GI50: 11.6 µM
  TGI: > 100 µM
SK-MEL-5 melanoma
  GI50: 19.5 µM
  TGI: > 100 µM
SK-MEL-28 melanoma
  GI50: 26.6 µM
  TGI: > 100 µM
786-0 renal
  GI50: 31.9 µM
  TGI: > 100 µM
UACC-62 melanoma
  GI50: 9.51 µM
  TGI: > 100 µM
NCI-H23 lung
  GI50: 17.5 µM
  TGI: > 100 µM
MDA-MB-435
  GI50: 3.15 µM
  TGI: 10.9 µM
OVCAR-8 ovarian
  GI50: 24.9 µM
  TGI: > 100 µM
A549 NSCLC
  GI50: 9.63 µM
  TGI: > 100 µM
HCT-15 colon
  GI50: 9.36 µM
  TGI: > 100 µM
RPMI-8226 leukemia
  GI50: 8.83 µM
  TGI: 39.7 µM
NCI-H226 lung
  GI50: > 100 µM
  TGI: > 100 µM
MOLT-4 leukemia
  GI50: 7.56 µM
  TGI: > 100 µM
LOX IMVI melanoma
  GI50: 21.2 µM
  TGI: > 100 µM
SNB-19 CNS
  GI50: 52.8 µM
  TGI: > 100 µM
HL-60(TB) leukemia
  GI50: 12 µM
  TGI: 58.2 µM
SW-620 colon
  GI50: 15 µM
  TGI: > 100 µM
COLO 205 colon
  GI50: 23.9 µM
  TGI: > 100 µM
CAKI-1 renal
  GI50: 44.1 µM
  TGI: > 100 µM
UO-31 renal
  GI50: > 100 µM
  TGI: > 100 µM
